Test results taken from the supplement of paper PMC5662764.
± gives the standard deviation of the averaged measurements.

Tests used:
Assay in all cases: normalised growth rate inhibition (GR value) relative to DMSO control (GR (1 = untreated growth, 0 = cytostasis, <0 = cytotoxic)); higher = less growth inhibition
Conditions in all cases: 72 h
[1] = tested on: MCF7
Outline: (§1)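 Six breast cell lines were seeded in 384-well plates and dosed 24 h later with drugs at 0.04–10 µM for 72 h. Cells were stained with Hoechst 33342 and Fixable Far Red Dead Cell Stain, fixed in 3% formaldehyde and imaged on an Operetta; viable cells were counted in Columbus. Normalised growth rate inhibition was computed from counts relative to same-plate DMSO wells and a day-0 plate. Technical plate replicates (generally three) were averaged.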

[2] = tested on: BT20
Outline: as §1

[3] = tested on: SKBR3
Outline: as §1

[4] = tested on: MCF10A
Outline: as §1

[5] = tested on: HS578T
Outline: as §1

[6] = tested on: MDAMB231
Outline: as §1

Structure (SMILES)	normalised growth rate inhibition ([1]; 0.04 µM)	normalised growth rate inhibition ([1]; 0.12 µM)	normalised growth rate inhibition ([1]; 0.37 µM)	normalised growth rate inhibition ([1]; 1.11 µM)	normalised growth rate inhibition ([1]; 3.33 µM)	normalised growth rate inhibition ([1]; 10 µM)	normalised growth rate inhibition ([2]; 0.04 µM)	normalised growth rate inhibition ([2]; 0.12 µM)	normalised growth rate inhibition ([2]; 0.37 µM)	normalised growth rate inhibition ([2]; 1.11 µM)	normalised growth rate inhibition ([2]; 3.33 µM)	normalised growth rate inhibition ([2]; 10 µM)	normalised growth rate inhibition ([3]; 0.04 µM)	normalised growth rate inhibition ([3]; 0.12 µM)	normalised growth rate inhibition ([3]; 0.37 µM)	normalised growth rate inhibition ([3]; 1.11 µM)	normalised growth rate inhibition ([3]; 3.33 µM)	normalised growth rate inhibition ([3]; 10 µM)	normalised growth rate inhibition ([4]; 0.04 µM)	normalised growth rate inhibition ([4]; 0.12 µM)	normalised growth rate inhibition ([4]; 0.37 µM)	normalised growth rate inhibition ([4]; 1.11 µM)	normalised growth rate inhibition ([4]; 3.33 µM)	normalised growth rate inhibition ([4]; 10 µM)	normalised growth rate inhibition ([5]; 0.04 µM)	normalised growth rate inhibition ([5]; 0.12 µM)	normalised growth rate inhibition ([5]; 0.37 µM)	normalised growth rate inhibition ([5]; 1.11 µM)	normalised growth rate inhibition ([5]; 3.33 µM)	normalised growth rate inhibition ([5]; 10 µM)	normalised growth rate inhibition ([6]; 0.04 µM)	normalised growth rate inhibition ([6]; 0.12 µM)	normalised growth rate inhibition ([6]; 0.37 µM)	normalised growth rate inhibition ([6]; 1.11 µM)	normalised growth rate inhibition ([6]; 3.33 µM)	normalised growth rate inhibition ([6]; 10 µM)
Cn1cnc2c(F)c(Nc3ccc(Br)cc3Cl)c(C(=O)NOCCO)cc21 [selumetinib]	0.867 ± 0.13	0.696 ± 0.071	0.568 ± 0.062	0.543 ± 0.072	0.575 ± 0.063	0.524 ± 0.024	1.11 ± 0.084	1.03 ± 0.099	0.999 ± 0.059	1.01 ± 0.061	0.974 ± 0.093	0.975 ± 0.081	1.139 ± 0.0015	1.037 ± 0.0086	1.044 ± 0.0095	1.02 ± 0.052	1.02 ± 0.033	0.969 ± 0.034	0.598 ± 0.026	0.455 ± 0.053	0.36 ± 0.056	0.281 ± 0.053	0.25 ± 0.041	0.177 ± 0.042	0.636 ± 0.094	0.53 ± 0.1	0.471 ± 0.068	0.428 ± 0.055	0.369 ± 0.036	0.26 ± 0.056	0.846 ± 0.078	0.702 ± 0.097	0.545 ± 0.088	0.458 ± 0.068	0.36 ± 0.068	0.2 ± 0.083
CO[C@H]1C[C@@H]2CC[C@@H](C)[C@@](O)(O2)C(=O)C(=O)N2CCCC[C@H]2C(=O)O[C@H]([C@H](C)C[C@@H]2CC[C@@H](O)[C@H](OC)C2)CC(=O)[C@H](C)/C=C(\C)[C@@H](O)[C@@H](OC)C(=O)[C@H](C)C[C@H](C)/C=C/C=C/C=C/1C [sirolimus]	0.502 ± 0.075	0.502 ± 0.07	0.486 ± 0.048	0.49 ± 0.08	0.495 ± 0.048	0.456 ± 0.096	0.54 ± 0.03	0.514 ± 0.062	0.522 ± 0.056	0.524 ± 0.067	0.536 ± 0.061	0.587 ± 0.043	0.47 ± 0.069	0.449 ± 0.056	0.405 ± 0.12	0.389 ± 0.09	0.366 ± 0.082	0.353 ± 0.1	0.982 ± 0.074	0.999 ± 0.069	0.995 ± 0.082	0.997 ± 0.077	1 ± 0.089	0.986 ± 0.087	0.629 ± 0.089	0.619 ± 0.048	0.619 ± 0.055	0.632 ± 0.072	0.621 ± 0.066	0.62 ± 0.09	0.802 ± 0.049	0.781 ± 0.039	0.812 ± 0.048	0.787 ± 0.042	0.784 ± 0.07	0.8 ± 0.087
CNC(=O)c1cc(Oc2ccc(NC(=O)Nc3ccc(Cl)c(C(F)(F)F)c3)cc2)ccn1 [sorafenib]	0.946 ± 0.023	0.91 ± 0.057	0.936 ± 0.028	0.906 ± 0.072	0.852 ± 0.089	0.247 ± 0.12	0.936 ± 0.017	0.931 ± 0.023	0.855 ± 0.052	0.849 ± 0.036	0.836 ± 0.026	0.429 ± 0.35	0.908 ± 0.048	0.954 ± 0.093	0.993 ± 0.07	1.03 ± 0.074	1.04 ± 0.084	0.212 ± 0.27	1.02 ± 0.046	0.993 ± 0.048	0.978 ± 0.047	0.97 ± 0.034	0.95 ± 0.038	0.65 ± 0.1	1.13 ± 0.076	1.14 ± 0.061	1.16 ± 0.098	1.18 ± 0.12	1.15 ± 0.11	0.874 ± 0.093	1.01 ± 0.045	0.917 ± 0.13	0.927 ± 0.11	0.938 ± 0.18	0.918 ± 0.13	0.801 ± 0.12
CCC(=O)N1CCN(c2ccc(-n3c(=O)ccc4cnc5ccc(-c6cnc7ccccc7c6)cc5c43)cc2C(F)(F)F)CC1 [torin-1]	0.166 ± 0.044	0.119 ± 0.024	0.082 ± 0.038	0.0141 ± 0.045	-0.0224 ± 0.046	-0.068 ± 0.033	0.271 ± 0.076	0.11 ± 0.081	0.0128 ± 0.054	-0.0682 ± 0.033	-0.152 ± 0.025	-0.251 ± 0.026	0.0209 ± 0.19	-0.0144 ± 0.18	-0.0642 ± 0.15	-0.11 ± 0.18	-0.161 ± 0.17	-0.218 ± 0.19	0.529 ± 0.13	0.304 ± 0.042	0.198 ± 0.017	0.161 ± 0.026	0.156 ± 0.006	0.0917 ± 0.027	0.267 ± 0.069	0.213 ± 0.075	0.163 ± 0.086	0.0994 ± 0.083	0.0438 ± 0.084	-0.093 ± 0.14	0.464 ± 0.038	0.339 ± 0.053	0.243 ± 0.073	0.178 ± 0.051	0.116 ± 0.055	-0.0316 ± 0.1
Nc1ccc(-c2ccc3ncc4ccc(=O)n(-c5cccc(C(F)(F)F)c5)c4c3c2)cn1 [torin-2]	-0.0044 ± 0.038	-0.0152 ± 0.09	-0.0495 ± 0.065	-0.0476 ± 0.037	-0.0446 ± 0.024	-0.111 ± 0.026	-0.0219 ± 0.046	-0.0695 ± 0.021	-0.128 ± 0.077	-0.218 ± 0.081	-0.287 ± 0.077	-0.251 ± 0.1	-0.135 ± 0.11	-0.132 ± 0.11	-0.158 ± 0.11	-0.168 ± 0.13	-0.21 ± 0.077	-0.286 ± 0.19	0.169 ± 0.23	0.111 ± 0.1	0.0505 ± 0.063	0.0367 ± 0.05	0.0667 ± 0.053	0.0215 ± 0.048	0.192 ± 0.058	0.0992 ± 0.089	-0.0345 ± 0.13	-0.0453 ± 0.13	-0.0773 ± 0.12	-0.135 ± 0.14	0.225 ± 0.084	0.135 ± 0.11	0.0529 ± 0.1	0.0249 ± 0.13	-0.112 ± 0.36	-0.199 ± 0.18
Cc1cc(Nc2cc(N3CCN(C)CC3)nc(Sc3ccc(NC(=O)C4CC4)cc3)n2)n[nH]1 [tozasertib]	0.0704 ± 0.017	0.0656 ± 0.024	0.0723 ± 0.044	0.0794 ± 0.022	0.0768 ± 0.026	0.0394 ± 0.0083	0.385 ± 0.12	0.0628 ± 0.1	-0.0205 ± 0.094	-0.0318 ± 0.12	-0.0355 ± 0.11	-0.0179 ± 0.11	-0.143 ± 0.11	-0.117 ± 0.076	-0.0975 ± 0.11	-0.082 ± 0.1	-0.0918 ± 0.1	-0.044 ± 0.1	0.395 ± 0.2	0.145 ± 0.087	0.124 ± 0.056	0.118 ± 0.064	0.0967 ± 0.04	0.0692 ± 0.053	0.123 ± 0.11	0.0776 ± 0.12	0.108 ± 0.13	0.0732 ± 0.11	0.105 ± 0.12	0.0498 ± 0.077	0.0769 ± 0.023	0.056 ± 0.045	0.0918 ± 0.037	0.0708 ± 0.039	0.0979 ± 0.038	0.1 ± 0.13
CC(=O)Nc1cccc(-n2c(=O)n(C3CC3)c(=O)c3c(Nc4ccc(I)cc4F)n(C)c(=O)c(C)c32)c1 [trametinib]	0.364 ± 0.029	0.365 ± 0.027	0.36 ± 0.011	0.387 ± 0.03	0.427 ± 0.0076	0.425 ± 0.013	0.71 ± 0.046	0.78 ± 0.049	0.743 ± 0.047	0.717 ± 0.053	0.683 ± 0.019	0.762 ± 0.066	0.503 ± 0.17	0.607 ± 0.08	0.565 ± 0.14	0.613 ± 0.11	0.624 ± 0.12	0.631 ± 0.16	0.152 ± 0.076	0.178 ± 0.068	0.182 ± 0.083	0.202 ± 0.071	0.206 ± 0.058	0.231 ± 0.058	0.261 ± 0.05	0.203 ± 0.071	0.194 ± 0.091	0.186 ± 0.088	0.179 ± 0.075	0.198 ± 0.091	0.0906 ± 0.041	0.129 ± 0.1	0.117 ± 0.072	0.11 ± 0.072	0.11 ± 0.082	0.128 ± 0.11
CCCS(=O)(=O)Nc1ccc(F)c(C(=O)c2c[nH]c3ncc(-c4ccc(Cl)cc4)cc23)c1F [vemurafenib]	0.978 ± 0.017	1.02 ± 0.024	1.03 ± 0.015	1.01 ± 0.046	0.998 ± 0.022	0.858 ± 0.086	0.971 ± 0.051	0.968 ± 0.052	0.964 ± 0.035	0.949 ± 0.057	0.87 ± 0.031	0.582 ± 0.032	1.05 ± 0.069	1.03 ± 0.044	1.03 ± 0.04	1.01 ± 0.042	0.951 ± 0.046	0.805 ± 0.032	0.9898 ± 0.0042	0.9881 ± 0.0069	0.9871 ± 0.0051	0.955 ± 0.045	0.798 ± 0.14	0.462 ± 0.096	1.04 ± 0.014	1.03 ± 0.011	1.03 ± 0.038	1.01 ± 0.051	0.89 ± 0.075	0.548 ± 0.033	0.975 ± 0.042	0.965 ± 0.03	0.964 ± 0.025	0.897 ± 0.061	0.827 ± 0.064	0.422 ± 0.042
CC1=C(CO)C(=O)O[C@@H]([C@@H](C)[C@H]2CC[C@H]3[C@@H]4C[C@H]5O[C@]56[C@@H](O)C=CC(=O)[C@]6(C)[C@H]4CC[C@]23C)C1 [withaferin-a]	1.01 ± 0.055	0.907 ± 0.091	0.283 ± 0.09	0.0882 ± 0.037	-0.196 ± 0.13	-0.141 ± 0.099	1.04 ± 0.038	0.99 ± 0.083	0.714 ± 0.13	-0.105 ± 0.13	-0.345 ± 0.065	-0.283 ± 0.026	1.04 ± 0.063	0.892 ± 0.096	0.174 ± 0.15	-0.104 ± 0.11	-0.3 ± 0.086	-0.278 ± 0.12	0.9993 ± 0.0071	0.984 ± 0.025	0.861 ± 0.05	-0.0779 ± 0.054	-0.193 ± 0.15	-0.244 ± 0.19	1.01 ± 0.018	1.01 ± 0.02	0.944 ± 0.077	-0.0869 ± 0.077	-0.085 ± 0.037	-0.287 ± 0.077	1.04 ± 0.053	1 ± 0.05	0.614 ± 0.16	-0.0338 ± 0.067	-0.143 ± 0.056	-0.336 ± 0.097
